Laboratory results: patent publication US9101638B2, “Boronic acid derivatives and therapeutic uses thereof” (Rempex Pharmaceuticals, Inc., priority 2013, dated 2015)

Columns and labels:
CathepsinA = biological target: T1, CathepsinA (Homo sapiens, UniProt P10619); assay: Serine protease inhibition: cathepsin A; assay type: biochemical, mammalian; conditions: Table 8B; read-out: IC50 CathepsinA
T1 construct: purchased R&D Systems 1049-SE
T1 sequence (P10619 29-480): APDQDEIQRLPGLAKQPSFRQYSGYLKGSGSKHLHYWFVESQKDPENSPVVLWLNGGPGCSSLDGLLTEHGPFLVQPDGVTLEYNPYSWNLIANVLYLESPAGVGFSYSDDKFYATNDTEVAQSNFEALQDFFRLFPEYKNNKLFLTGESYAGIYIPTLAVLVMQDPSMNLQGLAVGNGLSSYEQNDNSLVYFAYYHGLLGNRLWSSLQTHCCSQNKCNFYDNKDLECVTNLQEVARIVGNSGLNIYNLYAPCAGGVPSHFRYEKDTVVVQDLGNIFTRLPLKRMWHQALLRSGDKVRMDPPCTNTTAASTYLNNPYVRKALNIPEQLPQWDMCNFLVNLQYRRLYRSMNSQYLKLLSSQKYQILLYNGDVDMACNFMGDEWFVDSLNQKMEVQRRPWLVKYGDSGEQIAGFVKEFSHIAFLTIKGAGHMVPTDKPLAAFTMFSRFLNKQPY
Procedure: (§1) The effect of selected BLIs on the enzymatic activity of some common mammalian serine proteases was evaluated.
(§2) 50 μl of the diluted enzyme was mixed with 50 μl of inhibitor at various concentrations and 50 μl of corresponding buffer (Table 7). Reaction mixtures were incubated for 10 min at 37° C. Subsequently, 50 μl of corresponding substrate (Table 7) was added and absorbance or fluorescence was monitored for 30 min on SpectraMax M2 plate reader (Molecular Devices). 4-(2-Aminoethyl)benzenesulfonyl fluoride hydrochloride (AEBSF) and leupeptin were used as positive controls. Rates of reaction were calculated and presented relative to “no treatment” control.

Thrombin = biological target: T2, Thrombin (Homo sapiens, UniProt P00734); assay: Serine protease inhibition: thrombin; assay type: biochemical, mammalian; conditions: Table 8A, class symbols; read-out: IC50 Thrombin
T2 construct: Thrombin; MPBio; 19491880; purchased MPBio 19491880
Procedure: as §1, §2

EC1010 (CMY-6) [1] = assay: Potentiation of aztreonam, strain EC1010; assay type: cell-based
KP1009 (CTX-M-15) [2] = assay: Potentiation of tigemonam, strain KP1009; conditions: minimum BLI concentration inhibiting growth with 4 μg/mL tigemonam
EC1010 (CMY-6) [3] = assay type: cell-based
Chymotrypsin = biological target: T3, Chymotrypsin (Bos taurus, UniProt P00766); assay: Serine protease inhibition: chymotrypsin; assay type: biochemical, mammalian; conditions: Table 8A, class symbols; read-out: IC50 Chymotrypsin
T3 construct: purchased Calbiochem 230832
Procedure: as §1, §2

KP1009 (CTX-M-15) [4] = assay: Potentiation of aztreonam, strain KP1009; assay type: cell-based
SHV-12 = SHV-12 (Klebsiella pneumoniae, UniProt P0AD64, E235K/G234S/L31Q); assay: Inhibition of nitrocefin cleavage by purified SHV-12; assay type: biochemical; conditions: nitrocefin reporter substrate, purified enzyme; read-out: Ki (SHV-12, NCF)
Chain of SHV-12 (P0AD64 22-286 L31Q/G234S/E235K): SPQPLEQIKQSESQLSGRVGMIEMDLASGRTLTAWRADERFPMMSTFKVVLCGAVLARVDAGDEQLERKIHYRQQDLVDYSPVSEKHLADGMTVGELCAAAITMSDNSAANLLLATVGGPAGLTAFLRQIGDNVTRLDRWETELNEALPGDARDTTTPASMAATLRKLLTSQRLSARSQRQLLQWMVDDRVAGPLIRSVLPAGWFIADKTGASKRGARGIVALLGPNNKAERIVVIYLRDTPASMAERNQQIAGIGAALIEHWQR
Method in brief: (§3)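 Readout: nitrocefin hydrolysis, A490 recorded every 10 sec over 10 min. Enzyme and inhibitor (varied concentrations) preincubated 10 min, RT, in reaction buffer before substrate addition.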

ECL1002 = assay: Potentiation of aztreonam, strain ECL1002; assay type: cell-based; conditions: minimum BLI concentration inhibiting growth with 4 μg/mL aztreonam
Neutrophil elastase = biological target: T4, Neutrophil elastase (Homo sapiens, UniProt P08246); assay: Serine protease inhibition: neutrophil elastase; assay type: biochemical, mammalian; conditions: Table 8B; read-out: IC50 Neutrophil elastase
T4 construct: purchased Calbiochem 324681
T4 sequence (P08246 30-267): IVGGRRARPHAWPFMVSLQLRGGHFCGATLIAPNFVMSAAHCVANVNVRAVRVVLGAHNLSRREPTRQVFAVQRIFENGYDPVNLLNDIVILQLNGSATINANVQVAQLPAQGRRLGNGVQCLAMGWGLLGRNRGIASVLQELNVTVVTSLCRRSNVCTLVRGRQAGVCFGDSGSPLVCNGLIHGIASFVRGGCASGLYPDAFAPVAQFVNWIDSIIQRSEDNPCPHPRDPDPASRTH
Procedure: as §1, §2

KP1004 (K-2) = assay: Potentiation of aztreonam, strain KP1004; assay type: cell-based; conditions: minimum BLI concentration inhibiting growth with 4 μg/mL aztreonam
ec308 (SHV-5) [5] = assay: Potentiation of aztreonam, strain ec308; assay type: cell-based; conditions: minimum BLI concentration inhibiting growth with 4 μg/mL aztreonam
ec302 (TEM-10) [6] = assay: Potentiation of aztreonam, strain ec302; assay type: cell-based
KP1005 (CTX-M-14) = assay: Potentiation of aztreonam, strain KP1005; assay type: cell-based
ec302 (TEM-10) [7] = assay: Potentiation of tigemonam, strain ec302; assay type: cell-based
ec308 (SHV-5) [8] = assay: Potentiation of tigemonam, strain ec308; assay type: cell-based; conditions: minimum BLI concentration inhibiting growth with 4 μg/mL tigemonam
CathepsinG = biological target: T5, CathepsinG (Homo sapiens, UniProt P08311); assay: Serine protease inhibition: cathepsin G; assay type: biochemical, mammalian; conditions: Table 8B
T5 construct: purchased EMD Millipore 219373
T5 sequence (P08311 21-244): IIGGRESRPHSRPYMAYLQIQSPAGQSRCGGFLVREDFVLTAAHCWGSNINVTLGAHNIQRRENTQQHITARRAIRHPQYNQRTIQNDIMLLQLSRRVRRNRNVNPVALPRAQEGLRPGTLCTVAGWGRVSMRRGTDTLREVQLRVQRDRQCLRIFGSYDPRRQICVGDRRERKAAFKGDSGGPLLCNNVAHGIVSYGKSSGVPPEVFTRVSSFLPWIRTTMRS
Procedure: as §1, §2

CTX-M-14 = CTX-M-14 (Escherichia coli, UniProt Q9L5C7); assay: Inhibition of nitrocefin cleavage by purified CTX-M-14; assay type: biochemical; conditions: nitrocefin reporter substrate, purified enzyme; read-out: Ki (CTX-M-14, NCF)
Chain of CTX-M-14 (Q9L5C7 entry or part of it): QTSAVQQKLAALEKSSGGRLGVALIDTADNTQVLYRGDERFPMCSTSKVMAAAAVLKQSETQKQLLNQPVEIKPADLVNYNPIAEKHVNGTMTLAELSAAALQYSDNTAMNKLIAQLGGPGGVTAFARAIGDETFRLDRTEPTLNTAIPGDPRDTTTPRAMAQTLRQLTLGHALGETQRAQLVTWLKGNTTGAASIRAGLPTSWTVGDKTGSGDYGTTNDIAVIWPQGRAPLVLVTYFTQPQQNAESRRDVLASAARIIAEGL
Procedure: (§4) Purified enzymes were mixed with various concentrations of inhibitors in reaction buffer and incubated for 10 min at room temperature. Nitrocefin was added and substrate cleavage profiles were recorded at 490 nm every 10 sec for 10 min.

[9] = biological target: T6, Dipeptidyl peptidase 8 (DPP8) (Homo sapiens, UniProt Q6V1X1); assay: Serine protease inhibition: DPP8; assay type: biochemical, mammalian; conditions: Table 8B; read-out: IC50 DPP8
T6 construct: purchased BPS Bioscience 80080
T6 sequence (Q6V1X1 whole entry): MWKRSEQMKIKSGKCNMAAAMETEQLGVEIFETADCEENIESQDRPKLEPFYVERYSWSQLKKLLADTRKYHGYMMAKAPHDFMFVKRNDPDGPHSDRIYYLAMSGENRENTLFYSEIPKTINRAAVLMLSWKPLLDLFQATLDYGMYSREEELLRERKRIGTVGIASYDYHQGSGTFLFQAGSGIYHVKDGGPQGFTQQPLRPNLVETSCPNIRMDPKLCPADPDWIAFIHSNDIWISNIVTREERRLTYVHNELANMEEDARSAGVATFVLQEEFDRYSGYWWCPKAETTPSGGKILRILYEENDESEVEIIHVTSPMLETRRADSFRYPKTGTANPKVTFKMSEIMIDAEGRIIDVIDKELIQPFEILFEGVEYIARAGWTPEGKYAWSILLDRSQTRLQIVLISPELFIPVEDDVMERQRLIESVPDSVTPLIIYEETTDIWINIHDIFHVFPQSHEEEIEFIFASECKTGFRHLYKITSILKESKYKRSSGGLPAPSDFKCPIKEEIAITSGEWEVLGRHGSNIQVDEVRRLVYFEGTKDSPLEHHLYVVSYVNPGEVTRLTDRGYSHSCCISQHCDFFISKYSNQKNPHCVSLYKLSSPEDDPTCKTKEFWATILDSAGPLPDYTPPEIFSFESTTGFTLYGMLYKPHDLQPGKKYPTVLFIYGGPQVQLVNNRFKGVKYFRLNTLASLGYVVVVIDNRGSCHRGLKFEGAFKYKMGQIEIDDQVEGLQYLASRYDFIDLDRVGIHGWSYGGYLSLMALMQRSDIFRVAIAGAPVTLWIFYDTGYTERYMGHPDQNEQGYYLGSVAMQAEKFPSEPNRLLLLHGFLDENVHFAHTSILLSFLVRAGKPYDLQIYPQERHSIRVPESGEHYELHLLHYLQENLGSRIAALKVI
Procedure: as §1, §2

KPC-2 = KPC-2 (Klebsiella pneumoniae, UniProt Q9F663); assay: Inhibition of nitrocefin cleavage by purified KPC-2; assay type: biochemical; conditions: nitrocefin reporter substrate, purified enzyme; read-out: Ki (KPC-2, NCF)
Chain of KPC-2 (Q9F663 25-293, looked up, species assumed): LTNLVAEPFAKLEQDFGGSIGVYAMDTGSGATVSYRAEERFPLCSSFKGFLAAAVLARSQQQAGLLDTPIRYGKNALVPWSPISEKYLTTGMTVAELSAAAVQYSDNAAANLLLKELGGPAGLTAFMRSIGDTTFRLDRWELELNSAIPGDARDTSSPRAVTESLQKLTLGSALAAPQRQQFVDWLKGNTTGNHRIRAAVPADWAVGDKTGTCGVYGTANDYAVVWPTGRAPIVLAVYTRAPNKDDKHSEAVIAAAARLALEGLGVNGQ
Method in brief: as §3

Chymase = biological target: T7, Chymase (Homo sapiens, UniProt P23946); assay: Serine protease inhibition: chymase; assay type: biochemical, mammalian; conditions: Table 8A, class symbols; read-out: IC50 Chymase
T7 construct: purchased Enzo Lifescience BML-SE281
T7 sequence (P23946 22-247): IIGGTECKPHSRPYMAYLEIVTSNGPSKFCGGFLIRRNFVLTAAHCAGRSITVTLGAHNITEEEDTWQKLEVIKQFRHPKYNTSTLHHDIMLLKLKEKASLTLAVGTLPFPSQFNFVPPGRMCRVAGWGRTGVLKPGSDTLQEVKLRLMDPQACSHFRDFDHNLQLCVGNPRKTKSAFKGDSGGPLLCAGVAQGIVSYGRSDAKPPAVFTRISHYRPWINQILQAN
Procedure: as §1, §2

[10] = biological target: T8, Dipeptidyl peptidase 9 (DPP9) (Homo sapiens, UniProt Q86TI2); assay: Serine protease inhibition: DPP9; assay type: biochemical, mammalian; conditions: Table 8B; read-out: IC50 DPP9
T8 construct: purchased BPS Bioscience 80090
T8 sequence (Q86TI2 whole entry): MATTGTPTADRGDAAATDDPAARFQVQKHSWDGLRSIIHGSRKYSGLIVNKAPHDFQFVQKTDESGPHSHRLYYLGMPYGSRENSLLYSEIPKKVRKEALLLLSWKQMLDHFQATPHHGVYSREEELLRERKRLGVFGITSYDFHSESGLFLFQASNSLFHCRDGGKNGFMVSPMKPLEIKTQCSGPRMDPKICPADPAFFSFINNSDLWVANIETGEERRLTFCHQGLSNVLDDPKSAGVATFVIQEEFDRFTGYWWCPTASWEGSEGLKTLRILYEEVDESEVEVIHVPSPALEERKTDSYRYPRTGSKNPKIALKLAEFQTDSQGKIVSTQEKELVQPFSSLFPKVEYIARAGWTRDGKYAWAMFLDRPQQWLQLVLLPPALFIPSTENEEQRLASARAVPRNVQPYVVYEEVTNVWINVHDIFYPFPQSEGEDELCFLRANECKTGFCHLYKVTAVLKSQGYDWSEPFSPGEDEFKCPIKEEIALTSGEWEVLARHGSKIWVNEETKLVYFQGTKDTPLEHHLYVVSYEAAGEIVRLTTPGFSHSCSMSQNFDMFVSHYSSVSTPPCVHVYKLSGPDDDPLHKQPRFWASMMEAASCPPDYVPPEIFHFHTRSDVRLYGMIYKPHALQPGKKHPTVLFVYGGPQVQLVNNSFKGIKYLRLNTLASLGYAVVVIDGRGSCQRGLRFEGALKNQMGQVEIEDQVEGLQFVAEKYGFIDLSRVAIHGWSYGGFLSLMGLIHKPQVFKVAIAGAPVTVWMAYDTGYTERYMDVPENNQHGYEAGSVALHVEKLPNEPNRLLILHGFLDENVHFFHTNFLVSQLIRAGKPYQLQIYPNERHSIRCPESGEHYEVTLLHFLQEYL
Procedure: as §1, §2

PAM1032/KPC-2 = assay: Biapenem potentiation in PAM1032/KPC-2 (MexAB-OprM overexpressed); assay type: cell-based, Pseudomonas aeruginosa; conditions: BLI potency to decrease biapenem MIC 64-fold, 32 to 0.5 μg/ml; efflux proficient strain
Procedure: (§5) Efflux of BLIs from Pseudomonas aeruginosa by the MexAB-OprM efflux pump was also evaluated. […] Due to expression of KPC-2 both strains became resistant to biapenem. […] Potency of BLIs to potentiate biapenem in these strains was determined. […] The ratio of MPC64 values for each BLI in PAM1032/KPC-2 (efflux proficient) and PAM1154/KPC-2 (efflux deficient) was determined to generate the Efflux Index (EI).

PAM1154/KPC-2 = assay: Biapenem potentiation in PAM1154/KPC-2 (MexAB-OprM lacking); assay type: cell-based, Pseudomonas aeruginosa
Procedure: as §5

OXA-48 = OXA-48 (Klebsiella pneumoniae, UniProt Q6XEC0); assay: Inhibition of nitrocefin cleavage by purified OXA-48; assay type: biochemical; conditions: nitrocefin reporter substrate, purified enzyme; read-out: Ki (OXA-48, NCF)
Chain of OXA-48 (Q6XEC0 23-265 limits assumed): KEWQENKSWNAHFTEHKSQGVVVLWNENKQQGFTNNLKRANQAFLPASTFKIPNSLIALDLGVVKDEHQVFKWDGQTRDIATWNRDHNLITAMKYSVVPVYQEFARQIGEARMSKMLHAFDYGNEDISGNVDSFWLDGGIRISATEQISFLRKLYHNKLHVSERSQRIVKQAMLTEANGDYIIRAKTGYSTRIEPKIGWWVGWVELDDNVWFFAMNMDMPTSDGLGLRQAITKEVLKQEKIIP
Procedure: as §4

P99 = P99 (Enterobacter cloacae, UniProt P05364); assay: Inhibition of nitrocefin cleavage by purified P99; assay type: biochemical; conditions: nitrocefin reporter substrate, purified enzyme; read-out: Ki (P99, NCF)
Chain of P99 (P05364 21-381): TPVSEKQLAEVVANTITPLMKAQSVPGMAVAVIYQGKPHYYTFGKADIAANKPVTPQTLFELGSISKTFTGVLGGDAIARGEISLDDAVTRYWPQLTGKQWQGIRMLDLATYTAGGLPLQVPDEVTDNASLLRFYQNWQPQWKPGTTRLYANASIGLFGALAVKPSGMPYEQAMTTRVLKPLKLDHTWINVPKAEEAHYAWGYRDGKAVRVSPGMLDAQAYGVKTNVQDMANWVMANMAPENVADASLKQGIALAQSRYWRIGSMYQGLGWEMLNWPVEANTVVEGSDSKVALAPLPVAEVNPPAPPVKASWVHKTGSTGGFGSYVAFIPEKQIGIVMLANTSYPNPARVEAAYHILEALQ
Procedure: as §4

Structure (SMILES)	IC50 (CathepsinA)	AZT MPC4 CMY-6 EC1010 (EC1010 (CMY-6) [1])	TIG MPC4 CTX-M-15 KP1009 (KP1009 (CTX-M-15) [2])	TIG MPC4 CMY-6 EC1010 (EC1010 (CMY-6) [3])	AZT MPC4 CTX-M-15 KP1009 (KP1009 (CTX-M-15) [4])	Ki (SHV-12)	AZT MPC4 ECL1002 (ECL1002)	AZT MPC4 K-2 KP1004 (KP1004 (K-2))	AZT MPC4 SHV-5 ec308 (ec308 (SHV-5) [5])	AZT MPC4 TEM-10 ec302 (ec302 (TEM-10) [6])	AZT MPC4 CTX-M-14 KP1005 (KP1005 (CTX-M-14))	TIG MPC4 TEM-10 ec302 (ec302 (TEM-10) [7])	TIG MPC4 SHV-5 ec308 (ec308 (SHV-5) [8])	IC50 (CathepsinG)	Ki (CTX-M-14)	further results
O=C(COCc1ccccc1)N[C@H]1Cc2cccc(C(=O)O)c2OB1O [CPD B, reference compound]	15 to 500 µM	Z (key: X = MIC of less than 1 μg/mL; Y = MIC of 1 μg/mL to 10 μg/mL; Z = MIC of greater than 10 μg/mL)	Z (Z = MIC of greater than 10 μg/mL)	Y (key: X = MIC of less than 1 μg/mL; Y = MIC of 1 μg/mL to 10 μg/mL; Z = MIC of greater than 10 μg/mL)	Z (key: X = MIC of less than 1 μg/mL; Y = MIC of 1 μg/mL to 10 μg/mL; Z = MIC of greater than 10 μg/mL)	< 0.001 µM	Z (Z = MIC of greater than 10 μg/mL)	Z (Z = MIC of greater than 10 μg/mL)	Y (Y = MIC of 1 μg/mL to 10 μg/mL)	Z (key: X = MIC of less than 1 μg/mL; Y = MIC of 1 μg/mL to 10 μg/mL; Z = MIC of greater than 10 μg/mL)	Z (key: X = MIC of less than 1 μg/mL; Y = MIC of 1 μg/mL to 10 μg/mL; Z = MIC of greater than 10 μg/mL)	Z (key: X = MIC of less than 1 μg/mL; Y = MIC of 1 μg/mL to 10 μg/mL; Z = MIC of greater than 10 μg/mL)	Y (Y = MIC of 1 μg/mL to 10 μg/mL)	15 to 500 µM	< 0.001 µM	IC50 (Thrombin): > 800 µM; IC50 (Chymotrypsin): > 800 µM; IC50 (Neutrophil elastase): > 500 µM; IC50 [9]: 15 to 500 µM; Ki (KPC-2): > 0.01 µM; IC50 (Chymase): 300 to 800 µM; IC50 [10]: > 500 µM
O=C(N[C@H]1Cc2cccc(C(=O)O)c2OB1O)c1cccnc1 [Compound 12, (R)-2-hydroxy-3-(nicotinamido)-3,4-dihydro-2H-benzo[e][1,2]oxaborinine-8-carboxylic acid]	15 to 500 µM	Y (key: X = MIC of less than 1 μg/mL; Y = MIC of 1 μg/mL to 10 μg/mL; Z = MIC of greater than 10 μg/mL)	Y (Y = MIC of 1 μg/mL to 10 μg/mL)	Y (key: X = MIC of less than 1 μg/mL; Y = MIC of 1 μg/mL to 10 μg/mL; Z = MIC of greater than 10 μg/mL)	Y (key: X = MIC of less than 1 μg/mL; Y = MIC of 1 μg/mL to 10 μg/mL; Z = MIC of greater than 10 μg/mL)	< 0.001 µM	X (X = MIC of less than 1 μg/mL)	Y (Y = MIC of 1 μg/mL to 10 μg/mL)	Y (Y = MIC of 1 μg/mL to 10 μg/mL)	X (key: X = MIC of less than 1 μg/mL; Y = MIC of 1 μg/mL to 10 μg/mL; Z = MIC of greater than 10 μg/mL)	Y (key: X = MIC of less than 1 μg/mL; Y = MIC of 1 μg/mL to 10 μg/mL; Z = MIC of greater than 10 μg/mL)	Y (key: X = MIC of less than 1 μg/mL; Y = MIC of 1 μg/mL to 10 μg/mL; Z = MIC of greater than 10 μg/mL)	Y (Y = MIC of 1 μg/mL to 10 μg/mL)	< 15 µM	< 0.001 µM	PAM1032/KPC-2 Biapenem MPC64 (PAM1032/KPC-2): Z (Z Greater than 40); PAM1154/KPC-2 Biapenem MPC64 (PAM1154/KPC-2): X (key: X = Less than 10; Y = 10 to 40; Z Greater than 40); Ki (OXA-48): < 0.001 µM; Ki (P99): < 0.001 µM
